*1 amine or outer side, *2 acyl side, *3 side chain or, on linkers, in order; H or OH if unused. Where a SMILES comes first, the peptide text is derived from it. [ ]: non-standard residue; d: D form. Phe(4-(4-Ac-piperazinyl)) = CC(=O)N1CCN(c2ccc(C[C@H](N)C(=O)O)cc2)CC1; Trp(4-Cl)(βS-Me) = C[C@@H](c1c[nH]c2cccc(Cl)c12)[C@H](N)C(=O)O; Trp(βS-Me,4-F) = C[C@@H](c1c[nH]c2cccc(F)c12)[C@H](N)C(=O)O; Bip(4'-COOH) = N[C@@H](Cc1ccc(-c2ccc(C(=O)O)cc2)cc1)C(=O)O; Phe(3-CH2NH2) = O=C([C@H](Cc1cccc(CN[*:3])c1)N[*:1])[*:2]; X2 = O=C(O)c1ccc(-c2ccc(C[C@H](N[*:1])C(=O)[*:2])cn2)cc1; X1 = CC(=O)N1CCN(c2ccc(C[C@H](N[*:1])C(=O)[*:2])cn2)CC1; 1Nal(3S-Me) = C[C@@H](c1cccc2ccccc12)[C@H](N)C(=O)O; X11 = O=C([C@@H]1C[C@@H](NCc2ccccc2)CN1[*:1])[*:2]; Ala(indolin-1-yl) = N[C@@H](CN1CCc2ccccc21)C(=O)O; Phe(4-COOH) = N[C@@H](Cc1ccc(C(=O)O)cc1)C(=O)O; Trp(6-F) = N[C@@H](Cc1c[nH]c2cc(F)ccc12)C(=O)O; Trp(7-aza) = N[C@@H](Cc1c[nH]c2ncccc12)C(=O)O; Pro(4R-NH2) = N[C@H]1CN[C@H](C(=O)O)C1; AEF = NCCOc1ccc(C[C@H](N)C(=O)O)cc1; hTyr = N[C@@H](CCc1ccc(O)cc1)C(=O)O; hCha = N[C@@H](CCC1CCCCC1)C(=O)O; hPhe = N[C@@H](CCc1ccccc1)C(=O)O; 4Pal = N[C@@H](Cc1ccncc1)C(=O)O; Cha = N[C@@H](CC1CCCCC1)C(=O)O; dDab = NCC[C@@H](N)C(=O)O; dNMeA = CN[C@H](C)C(=O)O; Dab = NCC[C@H](N)C(=O)O; Dap = NC[C@H](N)C(=O)O
The compounds below were run against T1, Recombinant human IL-1β (Homo sapiens, UniProt P01584) (assay: IL-6 assay in MRC5 cells: inhibition of IL-1β induced IL-6 secretion (AlphaLISA)). Details: inhibition of IL-1β induced IL-6 secretion in MRC5 cells; IL-1β pre-incubated 1 hour with compound; read-out: MRC5 IC50.
T1 construct: purchased BioLegend 579404
T1 sequence (P01584 117-269): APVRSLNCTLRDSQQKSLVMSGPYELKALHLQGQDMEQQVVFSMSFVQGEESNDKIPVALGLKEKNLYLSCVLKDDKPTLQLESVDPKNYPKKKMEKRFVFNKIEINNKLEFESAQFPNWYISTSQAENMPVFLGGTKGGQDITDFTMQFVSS
Type: cell-based
Method in brief: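 IL-1β at 2×EC80 in seeding medium (EMEM, 0.025% BSA) preincubated 1 h at ambient temperature with compound, then 3000 MRC5 cells/well added and incubated overnight at 37 °C, 5% CO2. IL-6 in conditioned medium quantified by AlphaLISA; IC50 from 4-parameter logistic fit.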
CC(=O)N1CCN(c2ccc(C[C@@H]3NC(=O)[C@H](CCc4ccc(O)cc4)NC(=O)[C@@H](C)NC(=O)[C@H](CC(C)C)NC(=O)[C@H](CCCCN)NC(=O)[C@H](Cc4ccc(-c5ccc(C(=O)O)cc5)cc4)NC(=O)CNC(=O)[C@@H](C)N(C)C(=O)[C@H](CC(=O)O)NC(=O)[C@H]([C@@H](C)c4cccc5ccccc45)NC(=O)[C@@H]4C[C@@H](N)CN4C(=O)CNC(=O)[C@H](Cc4ccc(C(=O)O)cc4)NC(=O)[C@H](Cc4c[nH]c5ccccc45)NC3=O)cn2)CC1 [Example 3] (cyclo([X1]W[Phe(4-COOH)]G[Pro(4R-NH2)][1Nal(3S-Me)]D[dNMeA]G[Bip(4'-COOH)]KL[dA][hTyr])) showed an IC50 of 0.0599 nM.
C[C@@H]1C(=O)NCC(=O)N[C@@H](Cc2ccc(-c3ccc(C(=O)O)cc3)cc2)C(=O)N[C@@H](Cc2c[nH]c3ccccc23)C(=O)N[C@@H](CN)C(=O)N[C@H](C)C(=O)N[C@@H](CCc2ccc(O)cc2)C(=O)N[C@@H](Cc2ccc(-c3ccc(C(=O)O)cc3)cc2)C(=O)N[C@@H](Cc2c[nH]c3ccccc23)C(=O)N[C@@H](Cc2ccc(C(=O)O)cc2)C(=O)NCC(=O)N2C[C@H](NCc3ccccc3)C[C@H]2C(=O)N[C@@H]([C@@H](C)c2cccc3ccccc23)C(=O)N[C@@H](CC(=O)O)C(=O)N1C [Example 82] (cyclo([Bip(4'-COOH)]W[Phe(4-COOH)]G[X11][1Nal(3S-Me)]D[dNMeA]G[Bip(4'-COOH)]W[Dap][dA][hTyr])) was tested, and the IC50 was 0.0157 nM.
Work on C[C@@H]1C(=O)NCC(=O)N[C@@H](Cc2ccc(-c3ccc(C(=O)O)cc3)cc2)C(=O)N[C@@H](Cc2cccc(CN)c2)C(=O)N[C@@H](CO)C(=O)N[C@H](C)C(=O)N[C@@H](CCc2ccc(O)cc2)C(=O)N[C@@H](Cc2ccc(-c3ccc(C(=O)O)cc3)cc2)C(=O)N[C@@H](Cc2c[nH]c3ccccc23)C(=O)N[C@@H](Cc2ccc(C(=O)O)cc2)C(=O)NCC(=O)N2C[C@H](N)C[C@H]2C(=O)N[C@@H]([C@@H](C)c2c[nH]c3cccc(F)c23)C(=O)N[C@@H](CC(=O)O)C(=O)N1C [Example 74] (cyclo([Bip(4'-COOH)]W[Phe(4-COOH)]G[Pro(4R-NH2)][Trp(βS-Me,4-F)]D[dNMeA]G[Bip(4'-COOH)][Phe(3-CH2NH2)]S[dA][hTyr])) yielded an IC50 of 0.296 nM.
C[C@@H]1C(=O)NCC(=O)N[C@@H](Cc2ccc(-c3ccc(C(=O)O)cc3)cc2)C(=O)N[C@@H](CN2CCc3ccccc32)C(=O)N[C@@H](CN)C(=O)N[C@H](C)C(=O)N[C@@H](CCc2ccc(O)cc2)C(=O)N[C@@H](Cc2ccc(-c3ccc(C(=O)O)cc3)cc2)C(=O)N[C@@H](Cc2c[nH]c3ccccc23)C(=O)N[C@@H](Cc2ccc(C(=O)O)cc2)C(=O)NCC(=O)N2C[C@H](N)C[C@H]2C(=O)N[C@@H]([C@@H](C)c2cccc3ccccc23)C(=O)N[C@@H](CC(=O)O)C(=O)N1C [Example 14] (cyclo([Bip(4'-COOH)]W[Phe(4-COOH)]G[Pro(4R-NH2)][1Nal(3S-Me)]D[dNMeA]G[Bip(4'-COOH)][Ala(indolin-1-yl)][Dap][dA][hTyr])) gave an IC50 of 0.0297 nM.
C[C@@H]1C(=O)NCC(=O)N[C@@H](Cc2ccc(-c3ccc(C(=O)O)cc3)nc2)C(=O)N[C@@H](Cc2c[nH]c3ccccc23)C(=O)N[C@@H](CN)C(=O)N[C@H](C)C(=O)N[C@@H](CCc2ccc(O)cc2)C(=O)N[C@@H](Cc2ccc(-c3ccc(C(=O)O)cc3)cc2)C(=O)N[C@@H](Cc2c[nH]c3ccccc23)C(=O)N[C@@H](Cc2ccc(C(=O)O)cc2)C(=O)NCC(=O)N2C[C@H](N)C[C@H]2C(=O)N[C@@H]([C@@H](C)c2cccc3ccccc23)C(=O)N[C@@H](CC(=O)O)C(=O)N1C [Example 12] (cyclo([Bip(4'-COOH)]W[Phe(4-COOH)]G[Pro(4R-NH2)][1Nal(3S-Me)]D[dNMeA]G[X2]W[Dap][dA][hTyr])) showed an IC50 of 0.0551 nM.
In the case of CC(C)C[C@@H]1NC(=O)[C@H](Cc2ccncc2)NC(=O)[C@H](Cc2ccc(-c3ccc(C(=O)O)cc3)cc2)NC(=O)CNC(=O)[C@@H](C)N(C)C(=O)[C@H](CC(=O)O)NC(=O)[C@H]([C@@H](C)c2c[nH]c3cccc(F)c23)NC(=O)[C@@H]2C[C@@H](N)CN2C(=O)CNC(=O)[C@H](Cc2ccc(C(=O)O)cc2)NC(=O)[C@H](Cc2c[nH]c3ccccc23)NC(=O)[C@H](Cc2ccc(-c3ccc(C(=O)O)cc3)cc2)NC(=O)[C@H](CCc2ccc(O)cc2)NC(=O)[C@@H](C)NC1=O [Example 59] (cyclo([Bip(4'-COOH)]W[Phe(4-COOH)]G[Pro(4R-NH2)][Trp(βS-Me,4-F)]D[dNMeA]G[Bip(4'-COOH)][4Pal]L[dA][hTyr])), the IC50 is reported as 0.0362 nM.
Compound CC(=O)NCCOc1ccc(C[C@@H]2NC(=O)[C@H](CCc3ccc(O)cc3)NC(=O)[C@@H](C)N(C)C(=O)CNC(=O)[C@H](CCCCN)NC(=O)[C@H](Cc3ccc(-c4ccc(C(=O)O)cc4)cc3)NC(=O)CNC(=O)[C@@H](C)N(C)C(=O)[C@H](CC(=O)O)NC(=O)[C@H]([C@@H](C)c3cccc4ccccc34)NC(=O)[C@@H]3C[C@@H](N)CN3C(=O)CNC(=O)[C@H](Cc3ccc(C(=O)O)cc3)NC(=O)[C@H](Cc3c[nH]c4ccccc34)NC2=O)cc1 [Example 109] (cyclo([AEF](Ac)W[Phe(4-COOH)]G[Pro(4R-NH2)][1Nal(3S-Me)]D[dNMeA]G[Bip(4'-COOH)]KG[dNMeA][hTyr])) has an IC50 of 0.0775 nM.

Same assay, conditions: inhibition of IL-1β induced IL-6 secretion in MRC5 cells; read-out: MRC5 IC50
CC(=O)NCCOc1ccc(C[C@@H]2NC(=O)[C@H](CCc3ccc(O)cc3)NC(=O)[C@@H](CO)NC(=O)[C@H](CC(C)C)NC(=O)[C@H](Cc3c[nH]c4ccccc34)NC(=O)[C@H](Cc3ccc(-c4ccc(C(=O)O)cc4)cc3)NC(=O)CNC(=O)[C@@H](C)N(C)C(=O)[C@H](CC(=O)O)NC(=O)[C@H]([C@@H](C)c3c[nH]c4cccc(F)c34)NC(=O)[C@@H]3C[C@@H](N)CN3C(=O)CNC(=O)[C@H](Cc3ccc(C(=O)O)cc3)NC(=O)[C@H](Cc3c[nH]c4ccccc34)NC2=O)cc1 [Example 171] (cyclo([AEF](Ac)W[Phe(4-COOH)]G[Pro(4R-NH2)][Trp(βS-Me,4-F)]D[dNMeA]G[Bip(4'-COOH)]WL[dS][hTyr])) showed an IC50 of 0.145 nM.
CC(=O)NCCOc1ccc(C[C@@H]2NC(=O)[C@H](CCc3ccccc3)NC(=O)[C@@H](C)NC(=O)[C@H](CCN)NC(=O)[C@H](Cc3c[nH]c4ccccc34)NC(=O)[C@H](Cc3ccc(-c4ccc(C(=O)O)cc4)cc3)NC(=O)CNC(=O)[C@@H](C)N(C)C(=O)[C@H](CC(=O)O)NC(=O)[C@H]([C@@H](C)c3c[nH]c4cccc(Cl)c34)NC(=O)[C@@H]3C[C@@H](N)CN3C(=O)CNC(=O)[C@H](Cc3ccc(C(=O)O)cc3)NC(=O)[C@H](Cc3c[nH]c4ccccc34)NC2=O)cc1 [Example 142] (cyclo([AEF](Ac)W[Phe(4-COOH)]G[Pro(4R-NH2)][Trp(4-Cl)(βS-Me)]D[dNMeA]G[Bip(4'-COOH)]W[Dab][dA][hPhe])) gave an IC50 of 0.159 nM.
In the case of CC(=O)N1CCN(c2ccc(C[C@@H]3NC(=O)[C@H](CCc4ccc(O)cc4)NC(=O)[C@@H](CCN)NC(=O)CNC(=O)[C@H](CC4CCCCC4)NC(=O)[C@H](Cc4ccc(-c5ccc(C(=O)O)cc5)cc4)NC(=O)CNC(=O)[C@@H](C)N(C)C(=O)[C@H](CC(=O)O)NC(=O)[C@H]([C@@H](C)c4cccc5ccccc45)NC(=O)[C@@H]4C[C@@H](N)CN4C(=O)CNC(=O)[C@H](Cc4ccc(C(=O)O)cc4)NC(=O)[C@H](Cc4c[nH]c5ccccc45)NC3=O)cc2)CC1 [Example 202] (cyclo([Phe(4-(4-Ac-piperazinyl))]W[Phe(4-COOH)]G[Pro(4R-NH2)][1Nal(3S-Me)]D[dNMeA]G[Bip(4'-COOH)][Cha]G[dDab][hTyr])), the IC50 is reported as 0.029 nM.
With CC(=O)NCCOc1ccc(C[C@@H]2NC(=O)[C@H](CCc3ccc(O)cc3)NC(=O)[C@@H](CO)NC(=O)[C@H](CC(C)C)NC(=O)[C@H](CCCCN)NC(=O)[C@H](Cc3ccc(-c4ccc(C(=O)O)cc4)cc3)NC(=O)CNC(=O)[C@@H](C)N(C)C(=O)[C@H](CC(=O)O)NC(=O)[C@H]([C@@H](C)c3c[nH]c4cccc(F)c34)NC(=O)[C@@H]3C[C@@H](N)CN3C(=O)CNC(=O)[C@H](Cc3ccc(C(=O)O)cc3)NC(=O)[C@H](Cc3c[nH]c4ccccc34)NC2=O)cc1 [Example 161] (cyclo([AEF](Ac)W[Phe(4-COOH)]G[Pro(4R-NH2)][Trp(βS-Me,4-F)]D[dNMeA]G[Bip(4'-COOH)]KL[dS][hTyr])) the IC50 was 0.483 nM.
Compound CC(=O)NCCOc1ccc(C[C@@H]2NC(=O)[C@H](CCc3ccc(O)cc3)NC(=O)[C@@H](C)NC(=O)[C@H](CCN)NC(=O)[C@H](Cc3ccncc3)NC(=O)[C@H](Cc3ccc(-c4ccc(C(=O)O)cc4)cc3)NC(=O)CNC(=O)[C@@H](C)N(C)C(=O)[C@H](CC(=O)O)NC(=O)[C@H]([C@@H](C)c3c[nH]c4cccc(Cl)c34)NC(=O)[C@@H]3C[C@@H](N)CN3C(=O)CNC(=O)[C@H](Cc3ccc(C(=O)O)cc3)NC(=O)[C@H](Cc3c[nH]c4ccccc34)NC2=O)cc1 [Example 134] (cyclo([AEF](Ac)W[Phe(4-COOH)]G[Pro(4R-NH2)][Trp(4-Cl)(βS-Me)]D[dNMeA]G[Bip(4'-COOH)][4Pal][Dab][dA][hTyr])) has an IC50 of 0.379 nM.
For CC(=O)NCCOc1ccc(C[C@@H]2NC(=O)[C@H](CCC3CCCCC3)NC(=O)[C@@H](CCN)NC(=O)[C@H](CO)NC(=O)[C@H](Cc3c[nH]c4ncccc34)NC(=O)[C@H](Cc3ccc(-c4ccc(C(=O)O)cc4)cc3)NC(=O)CNC(=O)[C@@H](C)N(C)C(=O)[C@H](CC(=O)O)NC(=O)[C@H]([C@@H](C)c3cccc4ccccc34)NC(=O)[C@@H]3C[C@@H](N)CN3C(=O)CNC(=O)[C@H](Cc3ccc(C(=O)O)cc3)NC(=O)[C@H](Cc3c[nH]c4cc(F)ccc34)NC2=O)cc1 [Example 212] (cyclo([AEF](Ac)[Trp(6-F)][Phe(4-COOH)]G[Pro(4R-NH2)][1Nal(3S-Me)]D[dNMeA]G[Bip(4'-COOH)][Trp(7-aza)]S[dDab][hCha])), the IC50 was 0.025 nM.

Source: patent publication US20230406885A1, “CYCLIC PEPTIDES FOR TRAPPING INTERLEUKIN-1 BETA” (MERCK SHARP & DOHME LLC, priority 2022, published 2023)
